Converted amounts (≈) assume the structure as drawn.
Experiments:
CYP3A = conditions: cited from earlier work
[1] = oral, patients with B-cell malignancies; cited from earlier work
CYP2C8 = CYP2C8 induction in vitro; format: in vitro ADME, human
CYP3A4 = CYP3A4 induction in human hepatocytes; format: in vitro ADME
OATP1B1 = molecular target: T1, OATP1B1 (Homo sapiens, UniProt Q9Y6L6); experiment: transporter substrate/inhibitor assessment; format: in vitro ADME
T1 sequence (Q9Y6L6 1-691): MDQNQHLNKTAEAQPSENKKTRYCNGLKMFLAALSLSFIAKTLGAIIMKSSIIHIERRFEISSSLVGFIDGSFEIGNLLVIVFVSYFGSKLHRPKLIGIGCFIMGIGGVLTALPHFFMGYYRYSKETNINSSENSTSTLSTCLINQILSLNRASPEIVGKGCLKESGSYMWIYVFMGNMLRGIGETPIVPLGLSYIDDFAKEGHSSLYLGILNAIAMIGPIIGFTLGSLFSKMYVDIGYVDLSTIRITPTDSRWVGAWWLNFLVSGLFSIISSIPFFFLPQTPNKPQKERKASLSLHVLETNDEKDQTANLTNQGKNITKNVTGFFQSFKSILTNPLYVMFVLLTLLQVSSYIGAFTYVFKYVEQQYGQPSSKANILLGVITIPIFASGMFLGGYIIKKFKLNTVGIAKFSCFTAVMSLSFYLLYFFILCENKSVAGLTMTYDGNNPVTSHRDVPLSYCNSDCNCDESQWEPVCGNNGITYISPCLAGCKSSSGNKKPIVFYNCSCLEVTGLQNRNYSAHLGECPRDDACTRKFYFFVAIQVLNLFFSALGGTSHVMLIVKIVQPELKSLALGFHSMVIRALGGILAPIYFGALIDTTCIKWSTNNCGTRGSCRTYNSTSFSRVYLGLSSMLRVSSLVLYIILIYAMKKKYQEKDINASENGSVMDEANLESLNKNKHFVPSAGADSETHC

[2] = measured solubility at different pH levels; format: physicochemical
CYP2C19 = CYP2C19 induction in vitro; format: in vitro ADME, human
pKa = format: physicochemical
Caco‐2 = experiment: in vitro permeability study; format: in vitro ADME; conditions: experimental data adjusted to match Fa~0.7
CYP2C9 [3] = experiment: CYP2C9 induction in vitro; format: in vitro ADME, human
OAT3 = molecular target: T2, OAT3 (Homo sapiens, UniProt Q8TCC7); experiment: transporter substrate/inhibitor assessment; format: in vitro ADME
T2 sequence (Q8TCC7 1-542): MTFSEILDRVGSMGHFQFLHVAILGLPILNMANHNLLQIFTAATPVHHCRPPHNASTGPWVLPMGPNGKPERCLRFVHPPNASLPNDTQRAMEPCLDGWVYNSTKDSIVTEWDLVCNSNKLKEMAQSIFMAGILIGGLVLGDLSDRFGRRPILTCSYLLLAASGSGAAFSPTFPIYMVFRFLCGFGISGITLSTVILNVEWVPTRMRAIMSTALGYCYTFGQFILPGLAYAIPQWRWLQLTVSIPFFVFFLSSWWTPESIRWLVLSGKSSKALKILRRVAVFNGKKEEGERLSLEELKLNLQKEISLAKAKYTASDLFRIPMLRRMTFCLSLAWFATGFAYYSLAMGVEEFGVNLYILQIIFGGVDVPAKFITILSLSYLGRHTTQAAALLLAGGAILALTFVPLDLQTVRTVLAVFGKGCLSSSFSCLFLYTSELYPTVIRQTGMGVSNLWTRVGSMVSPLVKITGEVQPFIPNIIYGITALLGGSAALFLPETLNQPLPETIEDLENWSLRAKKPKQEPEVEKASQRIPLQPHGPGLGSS

CYP2C9 [4] = conditions: zanubrutinib 320 mg total daily dose, cocktail; cited from earlier work
OAT1 = molecular target: T3, OAT1 (Homo sapiens, UniProt Q4U2R8); experiment: transporter substrate/inhibitor assessment; format: in vitro ADME
T3 sequence (Q4U2R8 1-563): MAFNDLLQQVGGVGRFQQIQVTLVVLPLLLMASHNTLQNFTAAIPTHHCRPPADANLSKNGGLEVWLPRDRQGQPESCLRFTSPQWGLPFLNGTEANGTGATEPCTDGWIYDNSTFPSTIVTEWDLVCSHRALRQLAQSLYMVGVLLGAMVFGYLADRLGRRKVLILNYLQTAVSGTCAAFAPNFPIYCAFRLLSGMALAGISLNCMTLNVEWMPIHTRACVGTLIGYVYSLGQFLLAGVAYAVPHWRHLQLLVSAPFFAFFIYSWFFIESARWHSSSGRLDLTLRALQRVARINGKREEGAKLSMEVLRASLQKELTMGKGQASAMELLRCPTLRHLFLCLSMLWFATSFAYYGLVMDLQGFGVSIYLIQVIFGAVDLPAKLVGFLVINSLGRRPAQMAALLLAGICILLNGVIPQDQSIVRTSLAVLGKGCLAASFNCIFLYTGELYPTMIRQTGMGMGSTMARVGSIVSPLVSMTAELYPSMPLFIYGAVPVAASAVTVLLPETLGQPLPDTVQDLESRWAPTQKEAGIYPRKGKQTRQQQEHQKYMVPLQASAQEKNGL

## C=CC(=O)N1CCC([C@@H]2CCNc3c(C(N)=O)c(-c4ccc(Oc5ccccc5)cc4)nn32)CC1 [zanubrutinib, Zanubrutinib]
CYP3A; clinical study BGB-3111-108 with midazolam
  CYP3A induction in vivo: weak CYP3A inducer
CYP3A; zanubrutinib 320 mg total daily dose
  mean reduction of systemic exposure of CYP3A and CYP2C19 substrates: […]
[1]
  mean apparent terminal elimination half-life: […]
CYP2C8; 0.3 μM
  increase of CYP2C8 activity: […]
CYP2C8; 3 μM
  increase of CYP2C8 activity: […]
CYP2C8; 30 μM
  increase of CYP2C8 activity: […]
CYP2C8; Emax model on activity data
  Indmax CYP2C8: […]
CYP2C8; human, hepatocytes
  EC50: […]
CYP3A4; 3 μM
  increase of CYP3A4 activity: […]
CYP3A4; 30 μM
  increase of CYP3A4 activity: […]
CYP3A4; Emax model on activity data
  Indmax CYP3A4: […]
CYP3A4; human, hepatocytes
  EC50: […]
CYP3A4; per FDA DDI guidance, from in vitro data
  R3 (CYP3A induction potential): […]
OATP1B1
  substrate or inhibitor of OATP1B1: not a substrate or inhibitor
[2]; pH 1.2
  solubility: 0.247 mg/mL (≈ 524 µM)
[2]; pH 4.5
  solubility: […]
[2]; pH 6.8
  solubility: […]
[2]; pH 7.4
  solubility: 0.052 mg/mL (≈ 110 µM)
CYP2C19; 0.3 μM
  increase of CYC2C19 activity: […]
CYP2C19; 3 μM
  increase of CYC2C19 activity: […]
CYP2C19; 30 μM
  increase of CYC2C19 activity: […]
CYP2C19; human, hepatocytes
  EC50: […]
pKa
  pKa: […]
Caco‐2
  Peff,man: […]
CYP2C9 [3]; 0.3 μM
  increase of CYP2C9 activity: […]
CYP2C9 [3]; 3 μM
  increase of CYP2C9 activity: […]
CYP2C9 [3]; 30 μM
  increase of CYP2C9 activity: […]
CYP2C9 [3]; Emax model on activity data
  Indmax CYP2C9: […]
CYP2C9 [3]; human, hepatocytes
  EC50: […]
OAT3
  substrate or inhibitor of OAT3: not a substrate or inhibitor
CYP2C9 [4]
  effect on the activity of CYP2C9, BCRP and P-gp: minimal or no effect
OAT1
  substrate or inhibitor of OAT1: not a substrate or inhibitor

From paper PMC8129716 (CPT: Pharmacometrics & Systems Pharmacology, 2021)
